From PMC13576449, “Small-Molecule Activators of PRMT1: Discovery, SAR Analyses, and Proapoptotic Effects in Pancreatic Cancer Cells” (Journal of Medicinal Chemistry, 2026)

Tests used:
Type in all cases: biochemical
FLAG-tagged PRMT4 = target: T1, FLAG-tagged PRMT4 (Mus musculus, UniProt Q9WVG6); assay: Fluorescence-based in vitro PRMT assay (F-PRMT assay), PRMT4; settings: for Experimental result (PRMT4): vs solvent control = 100%
T1 construct: Full-length FLAG-tagged PRMT protein; made in house; host or cells: Sf9 insect cells (baculovirus)
T1 sequence (Q9WVG6 1-608): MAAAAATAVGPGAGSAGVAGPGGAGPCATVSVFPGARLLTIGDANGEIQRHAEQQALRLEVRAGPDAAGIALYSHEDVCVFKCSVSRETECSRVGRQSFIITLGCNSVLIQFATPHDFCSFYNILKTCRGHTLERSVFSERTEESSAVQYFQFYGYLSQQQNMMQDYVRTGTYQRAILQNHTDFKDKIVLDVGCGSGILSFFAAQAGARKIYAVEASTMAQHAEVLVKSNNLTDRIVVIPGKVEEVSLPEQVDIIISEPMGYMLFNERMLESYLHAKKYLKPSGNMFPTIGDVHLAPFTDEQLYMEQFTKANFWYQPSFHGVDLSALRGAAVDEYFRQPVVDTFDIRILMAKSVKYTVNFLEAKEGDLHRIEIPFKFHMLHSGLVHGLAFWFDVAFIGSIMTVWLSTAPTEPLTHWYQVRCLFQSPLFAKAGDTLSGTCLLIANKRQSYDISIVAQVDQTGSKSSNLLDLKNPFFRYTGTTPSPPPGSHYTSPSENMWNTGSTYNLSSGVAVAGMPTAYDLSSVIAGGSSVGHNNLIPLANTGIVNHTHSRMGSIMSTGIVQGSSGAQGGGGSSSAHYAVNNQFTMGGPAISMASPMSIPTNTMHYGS
Description: (§1) To evaluate the effects of the selected candidate molecules on the catalytic activity of type I enzymes, we employed a quantitative fluorescence-based in vitro PRMT activity (F-PRMT) assay using recombinant FLAG-tagged PRMT proteins expressed and affinity-purified from baculovirus-infected Sf9 cells (SI Figure S1, SI Figure S2A).
(§2) Human cell lines (PaTu8988T, PANC-1) were obtained from ATCC (American Type Culture Collection) and cultured in DMEM supplemented with 10% fetal calf serum (FCS, Gibco/BRL), 1% penicillin/streptomycin at 37 °C and 5% CO2. […] For PRMT1 inhibition, cells were treated with type I PRMT inhibitor MS023 hydrochloride (Biomol). For induction of genotoxic stress, cells were treated with gemcitabine (LC Laboratories). […] The following plasmids were used: pFASTBAC-FLAG-rat PRMT1, pFASTBAC-FLAG-mouse PRMT4, and pGEX-GAR. The complete ORFs of human PRMT3 and PRMT6 were inserted into the pFASTBAC HT-3xFLAG B vector via BamHI/HindIII and BamHI/XhoI sites, respectively.
(§3) For PRMT protein expression in insect cells, recombinant baculovirus (bacmid) was generated using the Bac-to-Bac baculovirus system (Invitrogen). Sf9 cells were transfected with bacmid DNA using X-tremeGENE HP DNA transfection reagent (Sigma-Aldrich) according to the manufacturer's instructions. After 3–5 days, supernatants were collected, filtered, and used to infect Sf9 cells to amplify the virus. After 2 rounds of virus amplification and estimation of the final P3 virus titer, the P3 virus (2–5 μL/10^6 cells) was applied for large-scale infection of 200 × 10^6 Sf9 cells in suspension culture at a density of 1 × 10^6 cells/mL. Cells were harvested 5–6 days post-infection by centrifugation at 500 g for 5 min at room temperature. Protein purification from baculovirus-infected Sf9 cells was performed as previously described. , Cells were lysed in BC buffer (20 mM HEPES pH 7.9, 250 mM NaCl, 10% (v/v) glycerin, 0.4 mM EDTA, 1 mM DTT) containing a protease inhibitor cocktail (Roche) by 3 freeze-thaw cycles. After centrifugation at 11,000 rpm (Sorval SS34 rotor) and 4 °C for 1 h, the supernatant (whole cell protein extract) was incubated with anti-FLAG M2 Affinity Gel (Cytiva) at 4 °C and under agitation for 4 h. Subsequently, beads were washed in BC buffer containing various NaCl concentrations (once in BC with 1 M NaCl, twice in BC with 500 mM NaCl, twice in BC with 250 mM NaCl and twice in BC with 100 mM NaCl). FLAG-tagged proteins were either maintained bead-bound as a 50% (v/v) slurry in BC buffer with 100 mM NaCl and stored at −80 °C or were eluted in the appropriate elution buffer (depending on the subsequent assay) containing 0.25 mg/mL 3xFLAG peptides (Sigma-Aldrich) at 4 °C for 30–45 min. To remove the FLAG-peptides from the eluate, dialysis was performed in elution buffer containing 10% (v/v) glycerol at 4 °C for 4–6 h using Slide-A-Lyzer Dialysis Devices (Thermo Fisher Scientific) according to the manufacturer’s recommendations.
(§4) In the first step, the fluorogenic substrate Nα-Benzoyl-L-arginine-7-amido-4-methylcoumarin (Bz-Arg-AMC, Sigma-Aldrich) undergoes methylation by PRMTs upon the addition of the cofactor SAM. In the second reaction step, trypsin cleaves the nonmethylated substrate, leading to the generation of the 7-amino-4-methylcoumarin product, which can be quantified by subsequent fluorescence measurement (excitation: 355 nm, emission: 460 nm). The first reaction was conducted with bead-bound PRMTs at a total volume of 100 μL. Each condition was performed as a technical triplicate to determine the mean and the standard deviation. […] For the negative controls, SAM was substituted with assay buffer. The incubation was continued at 37 °C and under agitation (1,000 rpm) for a duration of 2 h.

FLAG-tagged PRMT1 = target: T2, FLAG-tagged PRMT1 (Rattus norvegicus, UniProt Q63009); assay: Fluorescence-based in vitro PRMT assay (F-PRMT assay), PRMT1; settings: for Experimental result (PRMT1): vs solvent control = 100%
T2 construct: Full-length FLAG-tagged PRMT protein; made in house; host or cells: Sf9 insect cells (baculovirus)
T2 sequence (Q63009 whole entry): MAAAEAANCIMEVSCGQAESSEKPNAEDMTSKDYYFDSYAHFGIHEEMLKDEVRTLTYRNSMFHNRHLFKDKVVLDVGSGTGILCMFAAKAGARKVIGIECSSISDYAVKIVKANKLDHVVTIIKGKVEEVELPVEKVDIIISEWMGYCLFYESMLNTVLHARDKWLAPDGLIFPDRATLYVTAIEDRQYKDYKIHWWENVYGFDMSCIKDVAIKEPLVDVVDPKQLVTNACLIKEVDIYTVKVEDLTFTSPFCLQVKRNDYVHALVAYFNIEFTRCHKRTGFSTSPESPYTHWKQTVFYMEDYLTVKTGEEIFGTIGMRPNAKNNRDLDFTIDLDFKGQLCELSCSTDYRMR

FLAG-tagged PRMT3 = target: T3, FLAG-tagged PRMT3 (Homo sapiens, UniProt O60678); assay: Fluorescence-based in vitro PRMT assay (F-PRMT assay), PRMT3; settings: vs solvent control = 100%
T3 construct: The complete ORFs of human PRMT3 and PRMT6 were inserted; made in house; host or cells: Sf9 insect cells (baculovirus)
T3 sequence (O60678 whole entry): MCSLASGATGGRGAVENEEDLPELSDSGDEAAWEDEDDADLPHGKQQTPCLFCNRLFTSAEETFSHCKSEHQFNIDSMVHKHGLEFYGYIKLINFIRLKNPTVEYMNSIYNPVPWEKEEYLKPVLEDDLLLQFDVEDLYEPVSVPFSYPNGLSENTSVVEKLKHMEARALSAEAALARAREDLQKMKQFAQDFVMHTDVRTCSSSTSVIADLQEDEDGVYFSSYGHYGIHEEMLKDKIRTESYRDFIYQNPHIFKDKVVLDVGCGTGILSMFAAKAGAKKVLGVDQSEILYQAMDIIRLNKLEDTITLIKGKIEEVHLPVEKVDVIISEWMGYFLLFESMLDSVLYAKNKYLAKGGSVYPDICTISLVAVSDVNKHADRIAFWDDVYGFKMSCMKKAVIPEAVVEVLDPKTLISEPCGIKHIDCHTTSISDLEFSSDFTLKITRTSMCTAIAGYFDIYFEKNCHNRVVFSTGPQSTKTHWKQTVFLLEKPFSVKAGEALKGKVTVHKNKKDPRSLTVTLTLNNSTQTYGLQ
Description: as §1, §2, §3, §4

FLAG-tagged PRMT6 = target: T4, FLAG-tagged PRMT6 (Homo sapiens, UniProt Q96LA8); assay: Fluorescence-based in vitro PRMT assay (F-PRMT assay), PRMT6; settings: vs solvent control = 100%
T4 construct: The complete ORFs of human PRMT3 and PRMT6 were inserted; made in house; host or cells: Sf9 insect cells (baculovirus)
T4 sequence (Q96LA8 whole entry): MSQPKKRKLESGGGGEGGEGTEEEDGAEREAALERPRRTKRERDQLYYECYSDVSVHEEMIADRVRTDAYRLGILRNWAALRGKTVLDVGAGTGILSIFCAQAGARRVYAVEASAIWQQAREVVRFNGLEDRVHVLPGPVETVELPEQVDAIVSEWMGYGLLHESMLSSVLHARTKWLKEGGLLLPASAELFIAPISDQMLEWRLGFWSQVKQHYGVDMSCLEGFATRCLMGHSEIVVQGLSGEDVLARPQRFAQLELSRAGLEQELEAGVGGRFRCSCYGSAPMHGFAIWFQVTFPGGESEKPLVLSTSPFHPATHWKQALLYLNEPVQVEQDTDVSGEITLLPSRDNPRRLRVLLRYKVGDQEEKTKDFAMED
Description: as §1, §2, §3, §4

[1] = Table 1, 100 μM compound, 2 μM PRMT, n = 3, racemates used
[2] = Table 1, 100 μM compound, mean % difference of activity vs solvent control (100%), - inhibition, + activation, n = 3
[3] = Table S2, 100 µM compound, n=3, racemates used

CO/C=C1/C(=O)NC(=O)c2ccccc21 [TR-02, (E/Z)-4-(Methoxymethylene)isoquinoline-1,3(2H,4H)-dione]
Experimental result (PRMT4) (FLAG-tagged PRMT4; Table S3, 100 µM compound, n≥3): n.e. (did not significantly affect the catalytic activity (less than ±6% change or not significant p-value), are marked with n.e. (no effect))
effect on PRMT1 activity (in words) (FLAG-tagged PRMT1; 100 μM compound): no significant effect
Experimental result (PRMT1) (FLAG-tagged PRMT1; Table S3, 100 µM compound, n≥3): n.e. (did not significantly affect the catalytic activity (less than ±6% change or not significant p-value), are marked with n.e. (no effect))

CNC[C@H](O)COc1ccc([N+](=O)[O-])cc1Cl (racemic) [Compound K001JS007]
Experimental result (PRMT4) (FLAG-tagged PRMT4; [1]): PRMT4 i
Experimental result (PRMT1) (FLAG-tagged PRMT1; [1]): PRMT1 i
Efficacy ±Δ% (PRMT1) (FLAG-tagged PRMT1; [2]): -30%
Experimental result (PRMT3) (FLAG-tagged PRMT3; [1]): PRMT3 n.e. (Compounds, which did not significantly affect the catalytic activity (less than ±6% change or not significant p-value), are marked with [drawing 8] (no effect))
Experimental result (PRMT6) (FLAG-tagged PRMT6; [1]): PRMT6 i

CNCCCNCCc1ccccc1 [Compound K001JS006]
Experimental result (PRMT4) (FLAG-tagged PRMT4; [1]): PRMT4 i
Efficacy ±Δ% (PRMT4) (FLAG-tagged PRMT4; [2]): -10%
Experimental result (PRMT1) (FLAG-tagged PRMT1; [1]): PRMT1 n.e. (Compounds, which did not significantly affect the catalytic activity (less than ±6% change or not significant p-value), are marked with [drawing 8] (no effect))
Experimental result (PRMT3) (FLAG-tagged PRMT3; [1]): PRMT3 n.e. (Compounds, which did not significantly affect the catalytic activity (less than ±6% change or not significant p-value), are marked with [drawing 8] (no effect))
Experimental result (PRMT6) (FLAG-tagged PRMT6; [1]): PRMT6 i

O=C1NC(=O)c2ccccc2/C1=C/Nc1ccccc1 [TR-014, (Z)-4-[(Phenylamino)methylene]isoquinoline-1,3(2H,4H)-dione]
Experimental result (PRMT4) (FLAG-tagged PRMT4; Table S3, 100 µM compound, n≥3): n.e. (did not significantly affect the catalytic activity (less than ±6% change or not significant p-value), are marked with n.e. (no effect))
effect on PRMT1 activity (in words) (FLAG-tagged PRMT1; 100 μM compound): no significant effect
Experimental result (PRMT1) (FLAG-tagged PRMT1; Table S3, 100 µM compound, n≥3): n.e. (did not significantly affect the catalytic activity (less than ±6% change or not significant p-value), are marked with n.e. (no effect))
Experimental result (PRMT3) (FLAG-tagged PRMT3; Table S3, 100 µM compound, n≥3): n.e. (did not significantly affect the catalytic activity (less than ±6% change or not significant p-value), are marked with n.e. (no effect))
Experimental result (PRMT6) (FLAG-tagged PRMT6; Table S3, 100 µM compound, n≥3): n.e. (did not significantly affect the catalytic activity (less than ±6% change or not significant p-value), are marked with n.e. (no effect))

O[C@H](CNCc1ccco1)COc1ccc2ccccc2c1 (racemic) [Compound K001JS002]
Experimental result (PRMT4) (FLAG-tagged PRMT4; [3]): n.e. (did not significantly affect the catalytic activity of the intended PRMT (less than ±6% change or not significant p-value), are marked with n.e. (no effect))

CCN(CC)Cc1ccc(NS(=O)(=O)c2cc(C)cs2)cc1 [Compound K400JK016]
Experimental result (PRMT4) (FLAG-tagged PRMT4; [3]): n.e. (did not significantly affect the catalytic activity of the intended PRMT (less than ±6% change or not significant p-value), are marked with n.e. (no effect))

CS(=O)(=O)c1ccc(C(=O)NCc2nc3cc(F)ccc3[nH]2)cc1 [Compound K001JS011]
Experimental result (PRMT4) (FLAG-tagged PRMT4; [3]): n.e. (did not significantly affect the catalytic activity of the intended PRMT (less than ±6% change or not significant p-value), are marked with n.e. (no effect))

NCCCNCc1sc2ccccc2c1Cl [Compound K001FT010]
Experimental result (PRMT4) (FLAG-tagged PRMT4; [3]): n.e. (did not significantly affect the catalytic activity of the intended PRMT (less than ±6% change or not significant p-value), are marked with n.e. (no effect))

N=C(N)NCCCc1ccccc1Br [Compound K001FT004]
Experimental result (PRMT4) (FLAG-tagged PRMT4; [3]): n.e. (did not significantly affect the catalytic activity of the intended PRMT (less than ±6% change or not significant p-value), are marked with n.e. (no effect))

CC[C@H](NC(=O)c1cccc(Cn2cccn2)c1)c1nc(C)c[nH]1 (racemic) [Compound K001FT009]
Experimental result (PRMT4) (FLAG-tagged PRMT4; [3]): n.e. (did not significantly affect the catalytic activity of the intended PRMT (less than ±6% change or not significant p-value), are marked with n.e. (no effect))

CC1(C(=O)Nc2ccc3nc(CN)[nH]c3c2)CCC1 [Compound K400JK011]
Efficacy ±∆% (PRMT4) (FLAG-tagged PRMT4; Table S2, 100 µM compound, mean % difference vs solvent control (100%), n=3): -10%

COc1cccc(NC(=O)COC(=O)c2cc3ccccc3[nH]2)c1 [Compound K001JS005]
Experimental result (PRMT4) (FLAG-tagged PRMT4; [3]): n.e. (did not significantly affect the catalytic activity of the intended PRMT (less than ±6% change or not significant p-value), are marked with n.e. (no effect))

CNC(=O)Cn1cc(NC(=O)[C@@H]2CC[C@@H]2N)cn1 (racemic) [Compound K400JK012]
Experimental result (PRMT4) (FLAG-tagged PRMT4; [3]): n.e. (did not significantly affect the catalytic activity of the intended PRMT (less than ±6% change or not significant p-value), are marked with n.e. (no effect))

Cc1nc([C@@H](O)Cc2ccccc2)n(CCc2cnc[nH]2)n1 (racemic) [Compound K001FT007]
Experimental result (PRMT4) (FLAG-tagged PRMT4; [3]): n.e. (did not significantly affect the catalytic activity of the intended PRMT (less than ±6% change or not significant p-value), are marked with n.e. (no effect))

OCCNC[C@@H](O)COc1ccccc1 (racemic) [Compound K001JS001]
Experimental result (PRMT4) (FLAG-tagged PRMT4; [3]): n.e. (did not significantly affect the catalytic activity of the intended PRMT (less than ±6% change or not significant p-value), are marked with n.e. (no effect))

CNCCCNCc1ccccc1Br [Compound K001FT011]
Experimental result (PRMT4) (FLAG-tagged PRMT4; [3]): n.e. (did not significantly affect the catalytic activity of the intended PRMT (less than ±6% change or not significant p-value), are marked with n.e. (no effect))

C#CCNCC(=O)Nc1ccc([C@@H]2C[C@H]2N)cc1 (racemic) [Compound K400JK009]
Experimental result (PRMT4) (FLAG-tagged PRMT4; [3]): n.e. (did not significantly affect the catalytic activity of the intended PRMT (less than ±6% change or not significant p-value), are marked with n.e. (no effect))

NCCc1cn2cccc(OCc3ccccc3)c2n1 [Compound K001FT005]
Experimental result (PRMT4) (FLAG-tagged PRMT4; [3]): n.e. (did not significantly affect the catalytic activity of the intended PRMT (less than ±6% change or not significant p-value), are marked with n.e. (no effect))
